Experimental data published in patent US12310975B2, “Modulators of BCL6 proteolysis and associated methods of use” (Arvinas Operations, Inc., priority 2019, dated 2025).

Each compound was assayed against BCL6 (Homo sapiens (Human), UniProt P41182) (assay: Immunofluorescence high content imaging of BCL6 degradation in T47D cells). Conditions: T47D cells.
Type: cell-based
Method in brief: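 T47D cells were treated for 3 days at 37 °C with 11-point 3-fold dilutions of bifunctional degrader (final top 0.1 or 1 μM). BCL6 was detected by immunofluorescence after PFA fixation, with Hoechst and cell mask counterstains, and imaged at 10×, 4 fields/well.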

| Dmax [%] | IC50 [nM] | Compound |
| --- | --- | --- |
| 50 to 70 | 10 to 50 | CNC(=O)COc1cc2cc(Nc3nc(N4CCC[C@H](COc5cccc6c5C(=O)N(C5CCC(=O)NC5=O)C6=O)C4)ncc3Cl)ccc2n(C2CC2)c1=O (stereo partly drawn) [compound 336, 2-{[6-({5-chloro-2-[(3S)-3-({[2-(2,6-dioxopiperidin-3-yl)-1,3-dioxo-2,3-dihydro-1H-isoindol-4-yl]oxy}methyl)piperidin-1-yl]pyrimidin-4-yl}amino)-1-cyclopropyl-2-oxo-1,2-dihydroquinolin-3-yl]oxy}-N-methylacetamide] |
| < 50 |  | CCC(C1CCN(c2ccc3c(c2)C(=O)N(C2CCC(=O)NC2=O)C3=O)CC1)N1CCN(c2ncc(Cl)c(Nc3ccc4c(c3)cc(OCC(=O)NC)c(=O)n4C)n2)CC1 (stereo not shown) [compound 337, 2-{[6-({5-chloro-2-[4-(1-{1-[2-(2,6-dioxopiperidin-3-yl)-1,3-dioxo-2,3-dihydro-1H-isoindol-5-yl]piperidin-4-yl}propyl)piperazin-1-yl]pyrimidin-4-yl}amino)-1-methyl-2-oxo-1,2-dihydroquinolin-3-yl]oxy}-N-methylacetamide] |
| < 50 | < 10 | CCCC(C1CCN(c2ccc3c(c2)C(=O)N(C2CCC(=O)NC2=O)C3=O)CC1)N1CCN(c2ncc(Cl)c(Nc3ccc4c(c3)cc(OCC(=O)NC)c(=O)n4C)n2)CC1 (stereo not shown) [compound 338, 2-{[6-({5-chloro-2-[4-(1-{1-[2-(2,6-dioxopiperidin-3-yl)-1,3-dioxo-2,3-dihydro-1H-isoindol-5-yl]piperidin-4-yl}butyl)piperazin-1-yl]pyrimidin-4-yl}amino)-1-methyl-2-oxo-1,2-dihydroquinolin-3-yl]oxy}-N-methylacetamide] |
| 50 to 70 | < 10 | CNC(=O)COc1cc2cc(Nc3nc(N4CCN(CC5(F)CCN(c6ccc7c(c6)C(=O)N(C6CCC(=O)NC6=O)C7=O)CC5)CC4)ncc3Cl)ccc2n(C)c1=O (stereo not shown) [compound 339, 2-{[6-({5-chloro-2-[4-({1-[2-(2,6-dioxopiperidin-3-yl)-1,3-dioxo-2,3-dihydro-1H-isoindol-5-yl]-4-fluoropiperidin-4-yl}methyl)piperazin-1-yl]pyrimidin-4-yl}amino)-1-methyl-2-oxo-1,2-dihydroquinolin-3-yl]oxy}-N-methylacetamide] |
| 50 to 70 | < 10 | CNC(=O)COc1cc2cc(Nc3nc(N4CCC(F)(CN5CCN(c6ccc7c(c6)C(=O)N(C6CCC(=O)NC6=O)C7=O)CC5)CC4)ncc3Cl)ccc2n(C)c1=O (stereo not shown) [compound 340, 2-{[6-({5-chloro-2-[4-({4-[2-(2,6-dioxopiperidin-3-yl)-1,3-dioxo-2,3-dihydro-1H-isoindol-5-yl]piperazin-1-yl}methyl)-4-fluoropiperidin-1-yl]pyrimidin-4-yl}amino)-1-methyl-2-oxo-1,2-dihydroquinolin-3-yl]oxy}-N-methylacetamide] |
| ≥ 70 | < 10 | CNC(=O)COc1cc2cc(Nc3nc(N4CCN(CC5(F)CCN(c6cccc7c6C(=O)N(C6CCC(=O)NC6=O)C7=O)CC5)CC4)ncc3Cl)ccc2n(C)c1=O (stereo not shown) [compound 341, 2-{[6-({5-chloro-2-[4-({1-[2-(2,6-dioxopiperidin-3-yl)-1,3-dioxo-2,3-dihydro-1H-isoindol-4-yl]-4-fluoropiperidin-4-yl}methyl)piperazin-1-yl]pyrimidin-4-yl}amino)-1-methyl-2-oxo-1,2-dihydroquinolin-3-yl]oxy}-N-methylacetamide] |
| 50 to 70 | < 10 | CNC(=O)COc1cc2cc(Nc3nc(N4CCC(F)(CN5CCN(c6cccc7c6C(=O)N(C6CCC(=O)NC6=O)C7=O)CC5)CC4)ncc3Cl)ccc2n(C)c1=O (stereo not shown) [compound 342, 2-{[6-({5-chloro-2-[4-({4-[2-(2,6-dioxopiperidin-3-yl)-1,3-dioxo-2,3-dihydro-1H-isoindol-4-yl]piperazin-1-yl}methyl)-4-fluoropiperidin-1-yl]pyrimidin-4-yl}amino)-1-methyl-2-oxo-1,2-dihydroquinolin-3-yl]oxy}-N-methylacetamide] |
| 50 to 70 | < 10 | CNC(=O)COc1cc2cc(Nc3nc(N4CCC[C@H](COc5cccc6c5C(=O)N(C5CCC(=O)NC5=O)C6=O)C4)ncc3Cl)ccc2n(C2CCCCC2)c1=O (stereo partly drawn) [compound 343, 2-{[6-({5-chloro-2-[(3S)-3-({[2-(2,6-dioxopiperidin-3-yl)-1,3-dioxo-2,3-dihydro-1H-isoindol-4-yl]oxy}methyl)piperidin-1-yl]pyrimidin-4-yl}amino)-1-cyclohexyl-2-oxo-1,2-dihydroquinolin-3-yl]oxy}-N-methylacetamide] |
| < 50 | < 10 | CCOc1cc(N2CCC(CN3CCN(c4ncc(Cl)c(Nc5ccc6c(c5)cc(OCC(=O)NC)c(=O)n6C)n4)CC3)CC2)ccc1C(=O)NC1CCC(=O)NC1=O (stereo not shown) [compound 344, 4-[4-({4-[5-chloro-4-({1-methyl-3-[(methylcarbamoyl)methoxy]-2-oxo-1,2-dihydroquinolin-6-yl}amino)pyrimidin-2-yl]piperazin-1-yl}methyl)piperidin-1-yl]-N-(2,6-dioxopiperidin-3-yl)-2-ethoxybenzamide] |
|  | ≥ 100 | CCCOc1cc(N2CCC(CN3CCN(c4ncc(Cl)c(Nc5ccc6c(c5)cc(OCC(=O)NC)c(=O)n6C)n4)CC3)CC2)ccc1C(=O)NC1CCC(=O)NC1=O (stereo not shown) [compound 345, 4-[4-({4-[5-chloro-4-({1-methyl-3-[(methylcarbamoyl)methoxy]-2-oxo-1,2-dihydroquinolin-6-yl}amino)pyrimidin-2-yl]piperazin-1-yl}methyl)piperidin-1-yl]-N-(2,6-dioxopiperidin-3-yl)-2-propoxybenzamide] |
| 50 to 70 | < 10 | CNC(=O)COc1cc2cc(Nc3nc(N4C[C@@H](C)N(CC5CCN(c6ccc(C(=O)NC7CCC(=O)NC7=O)c(OC)c6)CC5)[C@@H](C)C4)ncc3Cl)ccc2n(C)c1=O (stereo partly drawn) [compound 346, 4-(4-{[(2R,6S)-4-[5-chloro-4-({1-methyl-3-[(methylcarbamoyl)methoxy]-2-oxo-1,2-dihydroquinolin-6-yl}amino)pyrimidin-2-yl]-2,6-dimethylpiperazin-1-yl]methyl}piperidin-1-yl)-N-(2,6-dioxopiperidin-3-yl)-2-methoxybenzamide] |
| 50 to 70 | < 10 | CNC(=O)COc1cc2cc(Nc3nc(N4CCC(CN5[C@H](C)CN(c6ccc(C(=O)NC7CCC(=O)NC7=O)c(OC)c6)C[C@@H]5C)CC4)ncc3Cl)ccc2n(C)c1=O (stereo partly drawn) [compound 347, 4-[(3R,5S)-4-({1-[5-chloro-4-({1-methyl-3-[(methylcarbamoyl)methoxy]-2-oxo-1,2-dihydroquinolin-6-yl}amino)pyrimidin-2-yl]piperidin-4-yl}methyl)-3,5-dimethylpiperazin-1-yl]-N-(2,6-dioxopiperidin-3-yl)-2-methoxybenzamide] |
| < 50 | 10 to 50 | CNC(=O)COc1cc2cc(Nc3nc(N4CCO[C@H](COc5ccc(C(=O)NC6CCC(=O)NC6=O)cc5)C4)ncc3Cl)ccc2n(C(C)C)c1=O (stereo partly drawn) [compound 348, 4-{[(2S)-4-[5-chloro-4-({3-[(methylcarbamoyl)methoxy]-2-oxo-1-(propan-2-yl)-1,2-dihydroquinolin-6-yl}amino)pyrimidin-2-yl]morpholin-2-yl]methoxy}-N-(2,6-dioxopiperidin-3-yl)benzamide] |
| < 50 | ≥ 100 | CNC(=O)COc1cc2cc(Nc3nc(N4CCO[C@H](COc5ccc(C(=O)NC6CCC(=O)NC6=O)nc5)C4)ncc3Cl)ccc2n(C(C)C)c1=O (stereo partly drawn) [compound 349, 5-{[(2S)-4-[5-chloro-4-({3-[(methylcarbamoyl)methoxy]-2-oxo-1-(propan-2-yl)-1,2-dihydroquinolin-6-yl}amino)pyrimidin-2-yl]morpholin-2-yl]methoxy}-N-(2,6-dioxopiperidin-3-yl)pyridine-2-carboxamide] |
| < 50 | < 10 | CNC(=O)COc1cc2cc(Nc3nc(N4CCO[C@H](COc5ccc(C(=O)NC6CCC(=O)NC6=O)c(F)c5)C4)ncc3Cl)ccc2n(C(C)C)c1=O (stereo partly drawn) [compound 350, 4-{[(2S)-4-[5-chloro-4-({3-[(methylcarbamoyl)methoxy]-2-oxo-1-(propan-2-yl)-1,2-dihydroquinolin-6-yl}amino)pyrimidin-2-yl]morpholin-2-yl]methoxy}-N-(2,6-dioxopiperidin-3-yl)-2-fluorobenzamide] |
| < 50 | 10 to 50 | CNC(=O)COc1cc2cc(Nc3nc(N4CCO[C@H](COc5ccc(C(=O)NC6CCC(=O)NC6=O)c(OC)c5)C4)ncc3Cl)ccc2n(C(C)C)c1=O (stereo partly drawn) [compound 351, 4-{[(2S)-4-[5-chloro-4-({3-[(methylcarbamoyl)methoxy]-2-oxo-1-(propan-2-yl)-1,2-dihydroquinolin-6-yl}amino)pyrimidin-2-yl]morpholin-2-yl]methoxy}-N-(2,6-dioxopiperidin-3-yl)-2-methoxybenzamide] |
| 50 to 70 | < 10 | CNC(=O)COc1cc2cc(Nc3nc(N4CCC(CCN5CCN(c6ccc7c(c6)C(=O)N(C6CCC(=O)NC6=O)C7=O)CC5)CC4)ncc3Cl)ccc2n(C)c1=O (stereo not shown) [compound 353, 2-{[6-({5-chloro-2-[4-(2-(4-[2-(2,6-dioxopiperidin-3-yl)-1,3-dioxo-2,3-dihydro-1H-isoindol-5-yl]piperazin-1-yl}ethyl)piperidin-1-yl]pyrimidin-4-yl}amino)-1-methyl-2-oxo-1,2-dihydroquinolin-3-yl]oxy}-N-methylacetamide] |
| 50 to 70 | < 10 | CNC(=O)COc1cc2cc(Nc3nc(N4CCN(CC5CCN(c6cc(F)c(C(=O)NC7CCC(=O)NC7=O)c(OC)c6)CC5)CC4)ncc3Cl)ccc2n(C)c1=O (stereo not shown) [compound 354, 4-[4-({4-[5-chloro-4-({1-methyl-3-[(methylcarbamoyl)methoxy]-2-oxo-1,2-dihydroquinolin-6-yl}amino)pyrimidin-2-yl]piperazin-1-yl}methyl)piperidin-1-yl]-N-(2,6-dioxopiperidin-3-yl)-2-fluoro-6-methoxybenzamide] |
